One data set deals with LAPC4 cells. In words: Cell proliferation (DNA content, DAPI), LAPC4. Format: cell-based, human. The note with it: LAPC4, 3 nM DHT, seven days; PP 100 nM, HH 100 nM, BiC 1 μM. An excerpt: (§1) LN-AR cells were created by retroviral infection of a high-expressing AR vector into LNCaP cells, and proliferate independent of androgen in cell culture, unlike their parental line (Chen, C. D., et al., Molecular determinants of resistance to antiandrogen therapy. Nat Med, 2004. 10(1): p. 33-9). HEK293 cells were used as a control. Cells were transferred to charcoal-stripped media two days before they were split and plated in quadruplicate at a density of approximately 20,000 cells/well in 48-well plates. […] Media were changed every day, using a single preparation to ensure consistent compound concentrations. Proliferation was determined by measuring the DNA content of the cells in each well. Each day, the cells in four wells were fixed in 100% cold methanol, followed by staining for 5 min at RT with 0.2 ng/mL 4′,6-diamidino-2-phenylindole (DAPI) in PBS. The cells were washed once in PBS, then read on a fluorescence plate reader using 365/439 excitation/emission wavelengths. LAPC4 and LNCaP cells proliferated to a much greater degree in the presence of DHT, while LN-AR cells proliferated in the presence and absence of DHT.

Another data set relates to HEK293 cells. In words: Cell proliferation (DNA content, DAPI), HEK293 control. Format: cell-based. The note with it: HEK293, seven days; PP 100 nM, HH 100 nM, BiC 1 μM.
Description: as §1

The target in data set [1] is T1, endogenous AR with a mutation (T877A), LNCaP cells (Homo sapiens, UniProt P10275, T878A).
T1 construct: that each express endogenous AR; endogenous in cells; host or cells: LNCaP
T1 sequence (P10275 1-920 T878A): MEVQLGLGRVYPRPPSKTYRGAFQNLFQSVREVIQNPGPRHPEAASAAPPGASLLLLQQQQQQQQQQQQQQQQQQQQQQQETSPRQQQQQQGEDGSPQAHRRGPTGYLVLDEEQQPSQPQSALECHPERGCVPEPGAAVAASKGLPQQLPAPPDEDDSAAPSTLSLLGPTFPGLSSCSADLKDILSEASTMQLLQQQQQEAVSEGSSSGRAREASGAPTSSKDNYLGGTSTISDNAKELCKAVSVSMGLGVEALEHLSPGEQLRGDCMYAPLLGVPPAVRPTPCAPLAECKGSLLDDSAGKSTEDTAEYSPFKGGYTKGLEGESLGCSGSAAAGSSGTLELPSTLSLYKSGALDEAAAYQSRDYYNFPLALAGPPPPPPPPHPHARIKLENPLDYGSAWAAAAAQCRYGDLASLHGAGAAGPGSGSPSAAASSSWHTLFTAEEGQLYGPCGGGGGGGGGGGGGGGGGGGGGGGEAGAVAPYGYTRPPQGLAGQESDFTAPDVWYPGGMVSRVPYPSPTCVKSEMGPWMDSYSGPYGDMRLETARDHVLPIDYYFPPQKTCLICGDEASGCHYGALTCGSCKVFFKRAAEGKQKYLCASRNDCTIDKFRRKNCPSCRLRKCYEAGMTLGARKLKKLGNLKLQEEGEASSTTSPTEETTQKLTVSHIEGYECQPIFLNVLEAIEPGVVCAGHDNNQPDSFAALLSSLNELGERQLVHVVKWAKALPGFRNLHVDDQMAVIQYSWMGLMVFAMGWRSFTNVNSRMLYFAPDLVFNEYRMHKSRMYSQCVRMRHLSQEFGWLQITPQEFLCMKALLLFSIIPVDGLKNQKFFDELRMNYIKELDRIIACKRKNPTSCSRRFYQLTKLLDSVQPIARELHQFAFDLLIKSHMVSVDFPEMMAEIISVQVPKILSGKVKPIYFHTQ
As to the kind of experiment: PSA-luciferase reporter assay in LNCaP cells with DHT. Format: cell-based. How it is done: (§2) Cells were transfected with two reporter plasmids, a PSA-luciferase construct (androgen responsive), and an SV40-renilla luciferase construct as an internal control. The following day, the cells were split and drugs added in the presence of 3 nM DHT. Luciferase production was measured the following day (Dual luciferase assay kit, Promega).
(§3) Synergism can be defined as a combination index of less than one, using the non-exclusive assumption described by Chou et al. (Chou, T. C. and P. Talalay, Quantitative analysis of dose-effect relationships: the combined effects of multiple drugs or enzyme inhibitors. Adv Enzyme Regul, 1984. 22: p. 27-55).
Background: A reporter such as luciferase makes a cellular process visible.

The nature of data set [2]: Pharmacokinetics in mice, drug levels by mass spectrometry. The conditions noted are these: for concentration at […]: 0.25 hr. Format: in vivo.
Description: Serum samples were obtained at fixed time intervals, and the drug levels determined by mass spectrometry.
For data set [3], the target named is T2, endogenous wild-type AR, LAPC4 cells (Homo sapiens, UniProt P10275).
T2 construct: that each express endogenous AR; endogenous in cells; host or cells: LAPC4
T2 sequence (P10275 1-920): T1 sequence (P10275 1-920 T878A) with A878T
As to the kind of experiment: PSA-luciferase reporter assay in LAPC4 cells with DHT. Format: cell-based. The note with it: 3 nM DHT. How it is done:
as §2, §3

Changes are numbered by the printed parent chain. Entries after “also recorded” stand apart in the source; their conditions may differ. Counter-ions that a name gives are not always drawn.

Turning to `Cc1nccc2c1[nH]c1cc(O)ccc12` [HH, harmol hydrochloride], the “Inhibition of cell growth” value with LAPC4 cells is “not effective”. For the same compound, in the data set on HEK293 cells, the “Non-specific growth inhibition of control cells” value is listed as “Neither compound exhibited non-specific growth inhibition”. The IC50 (in general, the point on the concentration scale where inhibition reaches its midpoint) in data set [1] (LNCaP cells, 3 nM DHT) was determined as 127 nM; in data set [3], 106 nM. For the same compound, the “Mode of antagonism: effect on DHT dose-response of PSA-luciferase” value in data set [1] (LNCaP, DHT titrated, moderate dose of each inhibitor, hydrochloride) is “inhibited maximal DHT-induced activation; also recorded: pattern consistent with a non-competitive antagonist”. The concentration at […] in data set [2] (FVB, mouse, plasma, mice, IP, 5 mg/kg single dose) turned out to be 32.3 ng/mL; in data set [2] (FVB, mouse, plasma, mice, PO, 5 mg/kg single dose) it was 6.7 ng/mL. Further, the concentration at 1 h in data set [2] (FVB, mouse, plasma, mice, IP, 5 mg/kg single dose, 1 hr) stood at 5 ng/mL. Besides, in data set [2] (Wild-type FVB mice, single intraperitoneal injection), the “Clearance / half-life in words” value is on record as “rapidly cleared”.

These data come from patent US8119660B2, “Small-molecule inhibitors of the androgen receptor” (The Regents of the University of California, priority 2007, dated 2012).
